In patent US7569554B2, “Synergistic treatment of cancer using immunomers in conjunction with therapeutic agents” (Idera Pharmaceuticals, Inc., priority 2003, dated 2009):
Counter-ions that a name gives are not always drawn.

Assays:
[1] = Body weight and clinical observation of PC3 tumor-bearing nude mice; assay type: in vivo, mouse; settings: compared with controls
[2] = tested on: human prostate cancer PC3 xenografts; assay: Tumor mass, human prostate cancer PC3 xenografts in nude mice, with Gemcitabine; assay type: in vivo, mouse; settings: 160 mg/kg
Experimental: (§1) PC3 cells were cultured in 90% Ham's, F12K Medium with 10% Fetal Bovine Serum (FBS), in presence of 100 U/ml Penicillin and 100 μg/ml Streptomycin to establish the Human Prostate cancer model (PC3). Male athymic nude mice, 4-6 weeks old (Frederick Cancer Research and Development Center, Frederick, Md.), were accommodated for 6 days for environmental adjustment prior to the study. Cultured PC3 cells were harvested from the monolayer cultures, washed twice with Ham's, F12K Medium (10% FBS), resuspended in FBS-free Ham's, F12K Medium: Matrigel basement membrane matrix (Becton Dickinson Labware, Bedford, Mass.) (5:1; V/V), and injected subcutaneously (5×10^6 cells, total volume 0.2 ml) into the left inguinal area of each of the mice. The animals were monitored by general clinical observation, body weight, and tumor growth. Tumor growth was monitored by the measurement, with calipers, of two perpendicular diameters of the implant. Tumor mass (weight in grams) was calculated by the formula, 1/2a X b^2, where ‘a’ is the long diameter (cm) and ‘b’ is the short diameter (cm). When the mean tumor sizes reached ˜80 mg, the animals bearing human cancer xenografts were randomly divided into the treatment and control groups (5 animals/group). The control group received sterile physiological saline (0.9% NaCl) only. Immunomer 255 or 285, aseptically dissolved in physiological saline, was administered by subcutaneously injection at dose of 0.5 or 1.0 mg/kg/day, 3 doses/week. […] The detailed treatment schedule is shown as follows.

[3] = tested on: CT26.CL25 colon tumor; assay: Subcutaneous CT26.CL25 colon tumor in BALB/c mice; assay type: in vivo, mouse
Experimental: For subcutaneous solid tumor models, 10^6 CT26.CL25 cells/mouse or 5×10^5 B16.F0 cells/mouse in 100 μl of PBS were implanted into BALB/c or C57BL/6 mice in the lower right flank. The tumor size reached to 50 to 200 mg on day 6 for CT26.CL25 and on day 8 for B16.F0 post tumor inoculation. The tumor bearing mice were then treated with peritumoral injection of IMO compounds or non-CpG DNA control at a dose of 1 mg/kg every other day for 10 times. Tumor growth was recorded with the use of calipers, by measuring the long and short diameters of the tumor. Tumor volumes were measured with a caliper and the formula (0.5×length×width^2) was applied to determine tumor growth kinetics.
The antitumor activity of IMO compounds in a murine colon carcinoma CT26.CL25 model was evaluated. BALB/c mice bearing CT26.CL25 subcutaneous solid tumors were treated with 1 mg/kg IMO compounds by peritumoral administration every other day for 10 times starting on day 6 following tumor inoculation.

[4] = tested on: BALB/c mice; assay: In vivo serum cytokine induction; parameters: species or system mouse; settings: for IL-6 (serum) / IL-12 (serum): 10 mg/kg, 4 hrs
Experimental: To assess serum cytokine levels, BALB/c mice (n=5) were injected intraperitoneally (i.p), subcutaneously (s.c) or intramuscularly (i.m) with IMO compounds at 10 mg/kg (single dose). Sera was collected by retro-orbital bleeding at 4 hrs of IMO administration and determined IL-112 and IL-6 by sandwich ELISA. Cytokine antibodies and standards were purchased from PharMingen (San Diego, Calif.).
To evaluate the immunopharmacological effects in vivo, IMO compounds, CpG immunomers, and non-CpG oligos were administered to BALB/c mice i.p, s.c or i.m at a dose of 10 mg/kg and their serum was evaluated for IL-12 and IL-6 after 4 hrs.

[5] = tested on: Her-2 positive BT-474 cells; assay: Lysis of BT-474 cells by IMO-activated human PBMCs in the presence of Herceptin; assay type: cell-based; settings: FIG. 26
[6] = tested on: 4T1 breast tumor; assay: 4T1 breast tumor in BALB/c mice, combination with doxorubicin; assay type: in vivo, mouse; settings: IMO 2 1 mg/kg peritumoral, doxorubicin 30 mg/kg i.p; FIG. 24A
Experimental: For the 4T1 tumor models, 5×10^5 cells/mouse in. 100 μl PBS were implanted into BALB/c mice in the lower right flank. On day 5 when the average tumor size reached 50 mm^2, the mice were given i.p injections of 30 mg/kg doxorubicin (Bedford lab, Bedford, Ohio) for three times on days 5, 6 and 7. IMO 2 (1 mg/kg) dissolved in 100 μl PBS was administrated by peritumoral injection at twice a week interval for a total of six times.

[7] = tested on: CD69+ and CD86+ cells; assay: Activation of CD69+ and CD86+ cells in peripheral blood; assay type: in vivo, mouse; settings: docetaxel 30 mg/kg days 1 and 3, IMO 2 5 mg/kg days 1, 3, 5, 7; FIG. 24C
[8] = tested on: human prostate cancer PC3 xenografts; assay: PC3 xenograft experiment repeated with taxotere; assay type: in vivo, mouse; parameters: unit: mg; settings: 15 mg/kg
Experimental: as §1
Taxotere was administered on days 0 and 7. Immunomer 165 was administered 5 days per week. Immunomers 255 and 285 were administered on days 0, 2, 4, 7, 9 and 11.

[9] = In vitro cytokine induction profiles of IMO compounds (FIG. 16); assay type: cell-based

Nc1ccn([C@@H]2O[C@H](CO)[C@@H](O)C2(F)F)c(=O)n1 [Gemcitabine, Gemcitabine HCl]
Body weight gains [1]: body weight loss in the first week and recovered in a week afterwards | Tumor mass ([2]; Day 0): 82.6 mg | Tumor mass ([2]; Day 3): 73.0 mg | Tumor mass ([2]; Day 9): 35.7 mg | Tumor mass ([2]; Day 12): 36.2 mg | Tumor mass ([2]; Day 15): 31.7 mg | Tumor mass ([2]; Day 18): 40.8 mg | Tumor mass ([2]; Day 24): 56.5 mg | Tumor mass ([2]; Day 27): 68.0 mg | Tumor mass ([2]; Day 30): 89.4 mg | Tumor mass ([2]; Day 33): 106.5 mg | Tumor mass ([2]; Day 36): 144.2 mg | Tumor mass ([2]; Day 39): 175.3 mg | Tumor mass ([2]; Day 42): 269.1 mg | Tumor mass ([2]; Day 45): 383.8 mg | Tumor mass ([2]; Day 48): 538.6 mg

IMO 3: IMO compound of FIG. 15 (SEQ ID NO 18) containing a human-specific motif (DNA TCTGTCNTTCT; listed as DNA, further chemistry not given here)
Antitumor activity ([3]; FIG. 25A): potent antitumor activity | Serum IL-12 secretion in mice ([4]; 4 hr after administration, FIG. 25B): induced IL-12 secretion | Lysis of BT-474 cells [5]: induces lysis of Her-2 positive BT-474 cells in the presence of Herceptin

COc1cccc2c1C(=O)c1c(O)c3c(c(O)c1C2=O)C[C@@](O)(C(=O)CO)C[C@@H]3O[C@H]1C[C@H](N)[C@H](O)[C@H](C)O1 [doxorubicin, reference compound]
Inhibition of 4T1 tumor growth [6]: strong inhibition

CC(=O)O[C@@]12CO[C@@H]1C[C@H](O)[C@@]1(C)C(=O)[C@H](O)C3=C(C)[C@@H](OC(=O)[C@H](O)[C@@H](NC(=O)OC(C)(C)C)c4ccccc4)C[C@@](O)([C@@H](OC(=O)c4ccccc4)[C@H]21)C3(C)C [Taxotere, Docetaxel]
Percentage of CD69+ and CD86+ cells [7]: did not inhibit such activations | In vivo anti-cancer activity (tumor mass) ([8]; Day 0.00): 56.64 | In vivo anti-cancer activity (tumor mass) ([8]; Day 3.00): 128.51 | In vivo anti-cancer activity (tumor mass) ([8]; Day 6.00): 320.63 | In vivo anti-cancer activity (tumor mass) ([8]; Day 9.00): 598.69 | In vivo anti-cancer activity (tumor mass) ([8]; Day 12.00): 924.91 | In vivo anti-cancer activity (tumor mass) ([8]; Day 15.00): 1589.08

IMO 1: IMO compound of FIG. 15, first in order (SEQ ID NO 13) (DNA TCTGACGTTCT; listed as DNA, chemistry not given here)
Average tumor growth inhibition ([3]; day 24, compared with non-CpG DNA treated mice, 1 mg/kg peritumoral): 72% | IL-6 (serum) ([4]; Intramuscular (i.m)): 5.8 ± 0.5 ng/mL | IL-12 (serum) ([4]; Intramuscular (i.m)): 109.3 ± 25 ng/mL | IL-6 (serum) ([4]; Intraperitoneal (i.p)): 5.9 ± 0.2 ng/mL | IL-12 (serum) ([4]; Intraperitoneal (i.p)): 59.0 ± 11 ng/mL | IL-6 (serum) ([4]; Subcutaneous (s.c)): 4.3 ± 0.3 ng/mL | IL-12 (serum) ([4]; Subcutaneous (s.c)): 98.3 ± 15 ng/mL | IL-12 secretion in vitro [9]: strong IL-12 secretion
